GI50 and TGI data for 9 compounds are collected here from PubChem BioAssay (NCI).

Each structure is given as a SMILES string. Values joined by “and” are separate entries in the source; they are usually repeats but may differ in a detail not shown here. Identical values can stand only once.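 Following 48 hours of exposure in 96-well plates, responses at five concentrations were used to interpolate endpoints linearly. Here, GI50 denotes the concentration required for 50% inhibition of growth. The concentration for full growth arrest is given as TGI.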

Common to all, as to test: inhibition of tumour cell growth, NCI panel, 48 h
For test [1], the system named is RXF 393 renal.
Test [2] concerns OVCAR-4 ovarian.
In test [3] the test system is T-47D breast.
Test [4] relates to SK-MEL-5 melanoma.
The test system of test [5] is SK-MEL-2 melanoma.
Test [6] has as its system HOP-92 NSCLC.
In test [7] the test system is BT-549 breast.
The subject of test [8] is OVCAR-5 ovarian.
For test [9], the system named is NCI-H23 lung.
Test [10] concerns HL-60(TB) leukemia.

As for `COCCNC(=O)c1ccc(-c2nc3ccc4[nH]ncc4c3c3c2CCCC3)cc1`, the GI50 in test [1] is 0.498 µM; in test [2] it was 4.59 µM; in test [3] it was 1.97 µM; in test [4] it was 3.39 µM; in test [5], 2.16 µM; in [6], 1.59 µM. The GI50 in test [7] is 1.22 µM; in [8], 6.05 µM; in [9] it was 2.41 µM; in [10] it was 2.43 µM. In addition, the TGI in test [1] is 3.7 µM; in test [2] it was 72.9 µM; in [3], 16.3 µM; in test [4], 26.3 µM; in [5], 7.97 µM; in test [6], 78.9 µM. Also, the TGI in test [7] was 9.34 µM; in [8], above 100 µM; in test [9], 31.1 µM; in [10] it was 7.33 µM.
For the compound `Oc1c(N=Nc2ccccc2)c2ccccc2c2ccc3ccccc3c12`, the TGI in test [1], in test [2], in test [3], in test [4], in [5] and in test [6] was above 100 µM each time. Further, the TGI in test [7], in [8], in [9] and in test [10] was above 100 µM in each case.
On to `O=C(/C=C/c1ccc(C(F)(F)F)cc1)c1ccc(Nc2nc(NCCO)nc(N3CCOCC3)n2)cc1`, for which the GI50 is 1.63 µM in test [1]; 3.05 µM in [2]; 2.28 µM in [3]; 3.16 µM in test [4]; 8.66 µM in [5]; 2.48 µM in test [6]. The GI50 was 1.56 µM in [7], 1.74 µM in [8], 2.55 µM in [9] and 2.92 µM in [10]. Besides, the TGI in test [1] came to 3.26 µM; in [2], 10.2 µM; in [3] it was 7.77 µM; in test [4], 10.2 µM; in test [5] it was 21.5 µM; in [6], 9.2 µM. Besides, the TGI was 3.09 µM in test [7], 3.97 µM in test [8], 6.97 µM in test [9] and 8.64 µM in test [10].
`N#CC1=C(N)Oc2c(sc3c(F)cccc23)C1c1ccc(F)cc1` (centres undefined): the GI50 in test [1] is 1.07 µM; in [2], 2.03 µM; in test [3], 0.61 µM; in test [4], 0.657 µM; in test [5] it was 0.982 µM; in test [6] it was 2.36 µM. Besides, the GI50 was 0.604 µM in test [7], 2.95 µM in [8], 1.45 µM in test [9] and 0.284 µM in test [10]. For the same compound, the TGI turned out to be 6.31 µM in test [1]; 16.6 µM in [2]; 26.9 µM in test [3]; 14.3 µM in test [4]; 18.6 µM in [5]; 13.4 µM in [6]. In addition, the TGI in [7] turned out to be 14.2 µM; in test [8] it was 14.6 µM; in test [9], 14.8 µM; in [10], 2.74 µM.
Take `S=C(Nc1ccccc1)N(Cc1ccccc1)c1ccccc1`: the TGI is 85 µM in test [1]; 93.6 µM in test [2]; above 100 µM in [3]; 28.5 µM in test [4]; 41.2 µM in test [5]; above 100 µM in test [6]. Further, the TGI was 4.97 µM in [7], above 100 µM in [8], above 100 µM in [9] and above 100 µM in [10].
As for `Oc1ccc(N=Nc2ccc(N=Nc3ccccc3)cc2)cc1`, the GI50 in test [1] was 14.3 µM; in test [2], 8.43 µM; in test [3] it was 1.61 µM; in [4] it was 2.1 µM; in test [5], 2.29 µM; in [6], 6.97 µM. For the same compound, the GI50 in test [7] was 0.899 µM; in test [8] it was 4.16 µM; in test [9] it was 4.1 µM; in [10], 0.366 µM. In addition, the TGI is 61.4 µM in test [1]; 32.9 µM in test [2]; 6.73 µM in [3]; 5.64 µM in [4]; 8.06 µM in test [5]; 28.1 µM in [6]. The TGI in [7] came to 9.06 µM; in test [8], 17.3 µM; in test [9], 19.5 µM; in test [10], 16.1 µM.
Take `COc1ccc2c(c1)OC(N)=C(C#N)C2c1ccc(F)cc1` (centres undefined): the GI50 was 2.28 µM in test [1]; 6.59 µM in test [2]; 3.78 µM in [3]; 2.49 µM in test [4]; 0.633 µM in test [5]; 8.52 µM in test [6]. In addition, the GI50 in test [7] is 1.63 µM; in test [8], 14.5 µM; in test [9], 4.03 µM; in test [10], 0.45 µM. Also, the TGI is 17.8 µM in test [1]; above 100 µM in [2]; above 100 µM in test [3]; 18.5 µM in [4]; above 100 µM in test [5]; 75.5 µM in test [6]. Also, the TGI in test [7] is 31.2 µM; in [8], above 100 µM; in [9] it was above 100 µM; in test [10], 7.15 µM.
`O=P1(O)c2ccccc2Nc2cc(C(F)(F)F)ccc21`: the TGI in test [1], in test [2], in test [3], in [4], in test [5] and in test [6] was above 100 µM throughout. Further, the TGI in test [7], in test [8], in test [9] and in test [10] was above 100 µM each time.
For `CCCCCN(CCCCC)CC(O)c1cc2c(c3ccccc13)CCCC2` (centres undefined), the GI50 in [1] was 2.31 µM and 2.88 µM; in test [2] it was 3.16 µM and 9.19 µM; in test [3] it was 3.04 µM and 7.77 µM; in test [4] it was 2.08 µM and 3.98 µM; in test [5], 2.86 µM and 11.5 µM; in test [6] it was 2.5 µM and 3.53 µM. Besides, the GI50 was 12.4 µM and 13.8 µM in test [7]; 11.1 µM and 13.5 µM in [8]; 3.72 µM and 5.94 µM in [9]; 2.53 µM and 7.51 µM in test [10]. Also, the TGI in test [1] was 6.71 µM and 7.13 µM; in [2] it was 16 µM and 30.1 µM; in [3] it was 14.2 µM and 25.7 µM; in [4], 5.01 µM and 14.1 µM; in [5], 8.2 µM and 29 µM; in test [6], 8.94 µM and 17.1 µM. Also, the TGI is 25.5 µM and 29.8 µM in test [7]; 23.6 µM and 31.5 µM in test [8]; 14.7 µM and 24.6 µM in test [9].
